# Assay: Solubility of active compound (I)
# Type: physicochemical
# Procedure: The active compound (I) has a relatively poor water solubility (about 7 mg/l). As a result of this, difficulties with the oral bioavailability and an increased biological variability of the absorption rate can result.
# An alternative process is the amorphization of the active compound. […] Amorphization of the active compound by means of the fusion method is also disadvantageous because of the high melting point of the active compound (about 230° C.), since an undesirably high proportion of breakdown components is formed during the preparation.
smiles,measurement,setting,value
"O=C(NC[C@H]1CN(c2ccc(N3CCOCC3=O)cc2)C(=O)O1)c1ccc(Cl)s1 [active compound (I), 5-chloro-N-({(5S)-2-oxo-3-[4-(3-oxo-4-morpholinyl)-phenyl]-1,3-oxazolidin-5-yl}-methyl)-2-thiophenecarboxamide]",solubility in pharmaceutically acceptable solvents,solvents such as ethanol or acetone,poorly soluble
same,solubility,water,~7 µg/mL

# Source: patent US9415053B2, “Solid, orally administrable pharmaceutical composition” (Bayer Intellectual Property GmbH, priority 2003, dated 2016)
